Source: patent publication US20060276400A1, “Modulation of cholesteryl ester transfer protein (CETP) activity” (priority 2005, published 2006)

What was measured:
[1] = system: serum HDL-cholesterol (HDLc); design: species or system human CETP transgenic mice; conditions: in vivo
human CETP = assay: ELISA anti-huCETP antibody titers in sera of immunized human CETP transgenic mice; conditions: in vivo; for average anti-huCETP titer: sc
serum CETP activity = assay: Serum CETP activity (fluorescent cholesteryl ester transfer assay) in immunized human CETP transgenic mice; conditions: in vivo
[2] = system: endogenous serum CETP activity; assay: Change in endogenous serum CETP activity in rabbits immunized with full-length human CETP; conditions: week 12 post-injection vs week -1 pre-injection, 0.2 mg huCETP in CFA, boosters in IFA; for increase in CETP activity following vaccination: Rabbit #1

| Molecule | change in serum HDLc levels in contrast to control group (in words) [1] | average anti-huCETP titer (human CETP) | effect on serum CETP activity (in words) (serum CETP activity) | anti-huCETP titer lower than those of the CETi-1 and CETi-2 groups (human CETP) | increase in CETP activity following vaccination [2] | increase in CETP activity following vaccination ([2]; listed as whole human CETP) | decrease in CETP activity following vaccination ([2]; Rabbit #11, listed as whole human CETP) |
| --- | --- | --- | --- | --- | --- | --- | --- |
| CQYIKANSKFIGITEFGFPEHLLVDFLQSLS [CETi-1, reference compound] | reduction | ~0.750 OD | appeared to elevate CETP activity | – | – | – | – |
| CSKGTSHEAGIVCRITKPALLQYIKANSKFIGITE [CETi-2] | reduction | ~0.750 OD | no effect on average | – | – | – | – |
| SKGTSHEAGIVCRITKPALLQYIKANSKFIGITE [CETi-2.1] | – | – | – | approx. 30% | – | – | – |
| human CETP: full-length human CETP (SEQ ID NO:7) purified from conditioned media of a huCETP transformed CHO cell line (protein, Human; PEPTIDE (1)..(476) Amino aid sequence of full-length mature human CETP protein) CSKGTSHEAGIVCRITKPALLVLNHETAKVIQTAFQRASYPDITGEKAMMLLGQVKYGLHNIQISHLSIASSQVELVEAKSIDVSIQNVSVVFKGTLKYGYTTAWWLGIDQSIDFEIDSAIDLQINTQLTCDSGRVRTDAPDCYLSFHKLLLHLQGEREPGWIKQLFTNFISFTLKLVLKGQICKEINVISNIMADFVQTRAASILSDGDIGVDISLTGDPVITASYLESHHKGHFIYKNVSEDLPLPTFSPTLLGDSRMLYFWFSERVFHSLAKVAFQDGRLMLSLMGDEFKAVLETWGFNTNQEIFQEVVGGFPSQAQVTVHCLKMPKISCQNKGVVVNSSVMVKFLFPRPDQQHSVAYTFEEDIVTTVQASYSKKKLFLSLLDFQITPKTVSNLTESSSESIQSFLQSMITAVGIPEVMSRLEVVFTALMNSKGVSLFDIINPEIITRDGFLLLQMDFGFPEHLLVDFLQSLS | – | – | – | – | +85% | 85% | 77% |
